Experiments:
[1] = tested on: E. multilocularis metacestode vesicles; test: Phosphoglucose isomerase (PGI) release assay (damage-marker release) on metacestode vesicles; type: cell-based, Echinococcus multilocularis; details: 10 μM; for PGI d5 (relative PGI release): 5 days; for PGI d12 (relative PGI release): 12 days
[2] = tested on: E. multilocularis metacestode vesicles; test: Metacestode vesicle viability assay (ATP, CellTiter-Glo); type: cell-based, Echinococcus multilocularis; details: 10 μM, 12 days
Protocol: Viability was assessed after 12 days using the same metacestode vesicles as for the PGI release assay. Triton X-100 was added to each well to a final concentration of 0.1 %. Subsequently the metacestode vesicles were broken mechanically and 50 μL of the supernatant was mixed with 50 μL of CellTiter-Glo® buffer (Promega, Dübendorf, Switzerland). Measurements were performed on a HIDEX Sense microplate reader.

[3] = overview screen, singlets, relative to 0.1 % Triton X-100, DMSO subtracted
[4] = overview screen, singlets, relative to DMSO control
[5] = confirmation screen, triplicates, mean

SMILES	PGI d5 (relative PGI release) [1, 3] [%]	PGI d12 (relative PGI release) [1, 3] [%]	Viability d12 (relative viability) [2, 4] [%]	PGI d5 (relative PGI release) [1, 5] [%]	PGI d12 (relative PGI release) [1, 5] [%]	Viability d12 (relative viability) [2, 5] [%]
CCOC(=O)/C=C/[C@H](C[C@@H]1CCNC1=O)NC(=O)[C@@H](CC(=O)[C@@H](NC(=O)c1cc(C)on1)C(C)C)Cc1ccc(F)cc1 [MMV1580491]	0.4485	-17.2617	181.789	–	–	–
Nc1nc(=O)c(Br)c(-c2ccccc2)[nH]1 [MMV690540]	2.1344	38.5177	20.6612	0.19	1.01	98.22
CC(=O)NC[C@H]1CN(c2ccc(N3CCSCC3)c(F)c2)C(=O)O1 [MMV688756]	-1.412	-2.526	97.3563	–	–	–
C[C@@H]1O[C@@H]1P(=O)(O)O [MMV002354]	4.505	-11.1824	22.2102	–	–	–
CCCCCOc1ccc(/C=C2\Oc3c(ccc(O)c3O)C2=O)c(O)c1 [MMV1580851]	1.174	-13.3457	137.102	–	–	–
O=C(NCc1ccc2c3c(cccc13)C(=O)N2)c1cccs1 [MMV1341773]	-1.3816	-12.533	18.2024	–	–	–
CN(C)c1[nH]c(=O)ncc1F [MMV1782223]	-2.446	-24.7543	98.8605	–	–	–
COCCn1cnc2c(O)nc(Nc3ccccc3)nc21 [MMV1782103]	-0.2041	-2.0996	66.6969	–	–	–
Cc1ccc(C)c(OCCCCCCN2C[C@H](O)[C@@H](O)[C@H](O)[C@H]2CO)c1 [MMV1634401]	8.592	62.8936	26.5643	1.51	2.13	146.24
Oc1ccc2[nH]c(-c3ccccc3)nc2c1 [MMV292173]	-3.6461	2.293	56.2358	–	–	–
NC(=O)c1cnccn1 [MMV003249]	1.909	-3.346	123.464	–	–	–
c1ccc(Cn2c(-c3ccccn3)nc3ccccc32)cc1 [MMV1578886]	-1.473	58.1597	16.9499	-0.18	-0.24	94.29
CC[C@H]1OC(=O)[C@H](C)[C@@H](O[C@H]2C[C@@](C)(OC)[C@@H](O)[C@H](C)O2)[C@H](C)[C@@H](O[C@@H]2O[C@H](C)C[C@H](N(C)C)[C@H]2O)[C@](C)(O)C[C@@H](C)C(=O)[C@H](C)[C@@H](O)[C@]1(C)O [MMV003137]	1.971	-21.4001	63.8752	–	–	–
